Reference: ChEMBL document CHEMBL2331328, “Synthetic approaches to DNMT inhibitor SGI-1027 and effects on the U937 leukemia cell line” (Bioorg Med Chem Lett, 2013)
Active and inactive are the calls of the source. The calls are words filed in the database; no cut-off is given here.

Key:
[1] = target: DNA (cytosine-5)-methyltransferase 1 (Homo sapiens) (UniProt P26358); experiment: Inhibition of human DNMT1 using AdoMet and poly dI-dC at 50 uM after 2 hrs by radioactive assay
[2] = test system: U-937; experiment: Induction of apoptosis in human U937 cells assessed as accumulation at pre-G1 phase after 30 hrs by FACS analysis; type: functional, cell-based
[3] = test system: U-937; experiment: Cell cycle arrest in human U937 cells at 5 to 50 uM after 30 hrs by FACS analysis; type: functional, cell-based

DNA (cytosine-5)-methyltransferase 1 (Homo sapiens), sequence (P26358 whole entry): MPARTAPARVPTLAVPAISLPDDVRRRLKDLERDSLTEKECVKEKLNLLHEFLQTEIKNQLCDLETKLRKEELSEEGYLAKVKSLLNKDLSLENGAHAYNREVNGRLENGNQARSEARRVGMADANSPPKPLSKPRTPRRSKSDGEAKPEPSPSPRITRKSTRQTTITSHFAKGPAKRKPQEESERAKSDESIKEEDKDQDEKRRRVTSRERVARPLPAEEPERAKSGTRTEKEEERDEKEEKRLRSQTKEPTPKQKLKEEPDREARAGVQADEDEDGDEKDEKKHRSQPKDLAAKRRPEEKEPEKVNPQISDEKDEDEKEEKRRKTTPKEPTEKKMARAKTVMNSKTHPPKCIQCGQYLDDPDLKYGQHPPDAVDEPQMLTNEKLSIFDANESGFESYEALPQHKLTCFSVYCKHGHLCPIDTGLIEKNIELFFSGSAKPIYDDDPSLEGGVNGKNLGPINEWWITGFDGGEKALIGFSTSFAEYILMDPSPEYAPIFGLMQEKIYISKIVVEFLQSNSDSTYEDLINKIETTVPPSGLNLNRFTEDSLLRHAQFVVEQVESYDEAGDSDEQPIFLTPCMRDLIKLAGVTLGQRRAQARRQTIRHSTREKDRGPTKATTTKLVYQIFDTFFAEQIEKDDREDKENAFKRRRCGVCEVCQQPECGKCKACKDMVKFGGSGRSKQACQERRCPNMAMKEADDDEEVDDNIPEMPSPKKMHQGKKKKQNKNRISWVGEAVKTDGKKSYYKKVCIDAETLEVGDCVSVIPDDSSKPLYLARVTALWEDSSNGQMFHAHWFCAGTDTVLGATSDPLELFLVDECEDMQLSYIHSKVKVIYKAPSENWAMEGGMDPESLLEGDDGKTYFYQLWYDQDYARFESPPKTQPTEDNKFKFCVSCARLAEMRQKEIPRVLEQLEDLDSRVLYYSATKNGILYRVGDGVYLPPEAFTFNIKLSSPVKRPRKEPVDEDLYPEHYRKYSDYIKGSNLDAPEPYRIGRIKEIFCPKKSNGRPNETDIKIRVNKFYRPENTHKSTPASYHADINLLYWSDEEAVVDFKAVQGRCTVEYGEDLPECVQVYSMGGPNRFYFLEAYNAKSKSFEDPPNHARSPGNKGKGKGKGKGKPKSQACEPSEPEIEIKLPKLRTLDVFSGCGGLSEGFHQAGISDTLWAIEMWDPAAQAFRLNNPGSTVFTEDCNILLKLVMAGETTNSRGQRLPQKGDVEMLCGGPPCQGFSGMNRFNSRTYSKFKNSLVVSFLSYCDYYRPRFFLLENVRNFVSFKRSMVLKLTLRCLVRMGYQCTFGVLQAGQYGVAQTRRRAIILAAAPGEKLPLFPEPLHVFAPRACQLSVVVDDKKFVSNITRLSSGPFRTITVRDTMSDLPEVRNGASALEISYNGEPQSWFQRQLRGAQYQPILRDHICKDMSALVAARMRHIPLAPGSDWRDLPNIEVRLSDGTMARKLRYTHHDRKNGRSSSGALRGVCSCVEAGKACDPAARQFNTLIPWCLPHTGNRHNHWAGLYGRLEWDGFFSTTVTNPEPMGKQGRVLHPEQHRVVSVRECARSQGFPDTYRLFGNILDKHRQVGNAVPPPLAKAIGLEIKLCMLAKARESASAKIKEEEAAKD

**Q.** For `O=C(O)[C@H](Cc1c[nH]c2ccccc12)N1C(=O)c2ccccc2C1=O`, which inhibition [1] is on record?
**A.** Its inhibition is “Active”.

**Q.** With `Cc1cc(Nc2ccc(NC(=O)c3ccc(Nc4ccnc5ccccc45)cc3)cc2)nc(N)n1` as the molecule, how does the Activity [2] read?
**A.** Its Activity is “Dose-dependent effect”.

**Q.** And the inhibition [1]?
**A.** Its inhibition is “Active”.

**Q.** What about the Activity [3] of the same molecule?
**A.** The Activity was “inactive”.
